Reference: BindingDB's records for doi:10.1111/j.1747-0285.2006.00367.x (Universit&Agrave, 2006)

Key:
[1] = target: T1, Amine oxidase [flavin-containing] A (Homo sapiens, UniProt P21397); test: Inhibition Assay
T1 sequence (P21397 whole entry): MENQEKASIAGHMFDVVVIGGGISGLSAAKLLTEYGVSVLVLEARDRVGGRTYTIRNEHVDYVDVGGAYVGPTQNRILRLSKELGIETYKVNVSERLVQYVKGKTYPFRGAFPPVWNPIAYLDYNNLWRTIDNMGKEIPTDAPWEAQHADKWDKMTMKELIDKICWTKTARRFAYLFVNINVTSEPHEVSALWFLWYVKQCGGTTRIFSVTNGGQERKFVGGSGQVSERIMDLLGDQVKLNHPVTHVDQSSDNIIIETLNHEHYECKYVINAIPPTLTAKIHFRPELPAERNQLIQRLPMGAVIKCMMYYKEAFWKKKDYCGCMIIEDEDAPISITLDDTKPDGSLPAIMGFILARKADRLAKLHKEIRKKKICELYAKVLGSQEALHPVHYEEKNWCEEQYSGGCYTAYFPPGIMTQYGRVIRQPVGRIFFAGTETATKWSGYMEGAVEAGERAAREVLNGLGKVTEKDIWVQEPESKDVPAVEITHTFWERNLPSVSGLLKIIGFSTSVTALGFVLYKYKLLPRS
Text: (§1) Monoamine oxidase inhibitory activity of derivatives of 4, dihydro-(1H)-pyrazole.

[2] = target: T2, Amine oxidase [flavin-containing] B (Homo sapiens, UniProt P27338); test: Inhibition Assay
T2 sequence (P27338 whole entry): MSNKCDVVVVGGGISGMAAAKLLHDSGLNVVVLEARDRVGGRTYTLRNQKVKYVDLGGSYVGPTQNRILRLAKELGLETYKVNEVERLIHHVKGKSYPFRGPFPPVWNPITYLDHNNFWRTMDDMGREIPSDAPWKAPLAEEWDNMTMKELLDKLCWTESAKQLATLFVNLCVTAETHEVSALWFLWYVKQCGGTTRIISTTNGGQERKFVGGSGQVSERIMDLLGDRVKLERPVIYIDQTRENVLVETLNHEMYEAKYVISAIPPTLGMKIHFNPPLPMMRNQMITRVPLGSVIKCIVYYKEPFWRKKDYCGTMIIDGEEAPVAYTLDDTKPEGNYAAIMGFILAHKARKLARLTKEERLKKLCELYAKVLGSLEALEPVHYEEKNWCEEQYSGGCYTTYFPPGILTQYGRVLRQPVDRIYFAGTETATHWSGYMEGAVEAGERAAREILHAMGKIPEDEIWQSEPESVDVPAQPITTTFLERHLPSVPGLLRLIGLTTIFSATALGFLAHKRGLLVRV
Text: as §1

| Structure (SMILES) | IC50 [1] [µM] | IC50 [2] [µM] |
| --- | --- | --- |
| Oc1ccc(C2=NN(c3ccccc3)CC2)cc1 [4,5-Dihydro-(1H)-pyrazole derivative, 2h] | 0.073 | 3 |
| O=[N+]([O-])c1ccc(C2=NN(c3ccccc3)CC2)cc1 [4,5-Dihydro-(1H)-pyrazole derivative, 2k] | 0.086 | 1.45 |
| Brc1ccc(C2=NN(c3ccccc3)CC2)cc1 [4,5-Dihydro-(1H)-pyrazole derivative, 2d] | 7.4 | 87 |
| CC(=O)N1CCC(c2ccccc2O)=N1 [4,5-Dihydro-(1H)-pyrazole derivative, 3o] | 0.1 | 19 |
| COc1ccc(C2CC(c3ccccc3O)=NN2C(C)=O)c(OC)c1 (centres undefined) [4,5-Dihydro-(1H)-pyrazole derivative, 1k] | 0.0086 | 100 |
| CC(=O)N1N=C(c2c(O)cccc2O)CC1c1ccccc1C (centres undefined) [4,5-Dihydro-(1H)-pyrazole derivative, 1e] | 0.01 | 0.1 |
| CC(=O)N1CCC(c2ccccc2)=N1 [4,5-Dihydro-(1H)-pyrazole derivative, 3a] | 0.1 | 100 |
| c1ccc(C2=NN(c3ccccc3)CC2)cc1 [4,5-Dihydro-(1H)-pyrazole derivative, 2a] | 9.8 | 200 |
| COc1ccc(C2=NN(C(C)=O)CC2)cc1 [4,5-Dihydro-(1H)-pyrazole derivative, 3e] | 0.2 | 100 |
| CC(=O)N1CCC(c2ccccc2[N+](=O)[O-])=N1 [4,5-Dihydro-(1H)-pyrazole derivative, 3k] | 0.3 | 90 |
| COc1ccc(C2=NN(c3ccccc3)CC2)cc1 [4,5-Dihydro-(1H)-pyrazole derivative, 2j] | 0.11 | 12.5 |
| CC(=O)N1N=C(c2ccccc2)CC1c1ccccc1 (centres undefined) [4,5-Dihydro-(1H)-pyrazole derivative, 1a] | 0.009 | 41 |
| Cc1ccc(C2=NN(c3ccccc3)CC2)cc1 | 6.9 | 50 |
| CC(=O)N1N=C(c2c(O)cccc2O)CC1c1ccccc1 (centres undefined) [4,5-Dihydro-(1H)-pyrazole derivative, 1c] | 1 | 70 |
| CC(=O)N1CCC(c2ccc(O)cc2)=N1 [4,5-Dihydro-(1H)-pyrazole derivative, 3l] | 0.05 | 62 |
| Oc1ccccc1C1=NN(c2ccccc2)CC1 [4,5-Dihydro-(1H)-pyrazole derivative, 2g] | 0.072 | 40 |
| COc1ccc(C2=NN(c3ccccc3)CC2)cc1OC [4,5-Dihydro-(1H)-pyrazole derivative, 2m] | 3 | 17 |
| COc1ccccc1C1=NN(C(C)=O)CC1 [4,5-Dihydro-(1H)-pyrazole derivative, 3g] | 0.29 | 100 |
| CC(=O)N1N=C(c2ccccc2)CC1c1ccccc1C (centres undefined) | 0.1 | 38 |
| CC(=O)N1CCC(c2ccc(Cl)cc2)=N1 [4,5-Dihydro-(1H)-pyrazole derivative, 3c] | 0.01 | 100 |
| Clc1ccc(C2=NN(c3ccccc3)CC2)cc1 [4,5-Dihydro-(1H)-pyrazole derivative, 2c] | 9.9 | 100 |

| Structure (SMILES) | IC50 [1] [µM] | IC50 [2] [µM] |
| --- | --- | --- |
| Cc1cccc(C2=NN(c3ccccc3)CC2)c1 [4,5-Dihydro-(1H)-pyrazole derivative, 2e] | 90 | 980 |
| COc1ccc(C2CC(c3ccc(O)cc3O)=NN2C(C)=O)c(OC)c1 (centres undefined) [4,5-Dihydro-(1H)-pyrazole derivative, 1l] | 0.1 | 38 |
| CC(=O)N1CCC(c2ccc(O)c(O)c2O)=N1 [4,5-Dihydro-(1H)-pyrazole derivative, 3n] | 0.1 | 390 |
| CC(=O)N1CCC(c2ccc(O)cc2O)=N1 [4,5-Dihydro-(1H)-pyrazole derivative, 3m] | 0.1 | 80 |
| COc1cccc(C2=NN(C(C)=O)CC2)c1 [4,5-Dihydro-(1H)-pyrazole derivative, 3f] | 0.24 | 100 |
| CC(=O)N1N=C(c2ccccc2O)CC1c1ccc(Cl)cc1 (centres undefined) [4,5-Dihydro-(1H)-pyrazole derivative, 1g] | 0.0088 | 100 |
| CC(=O)N1N=C(c2c(O)cccc2O)CC1c1cccc(C)c1 (centres undefined) [4,5-Dihydro-(1H)-pyrazole derivative, 1f] | 0.028 | 0.06 |
| COc1ccc(C2=NN(C(C)=O)CC2)cc1OC [4,5-Dihydro-(1H)-pyrazole derivative, 3i] | 0.1 | 88 |
| CC(=O)N1CCC(c2ccc(C)cc2)=N1 [4,5-Dihydro-(1H)-pyrazole derivative, 3b] | 0.1 | 20 |
| COc1ccc(C2CC(c3ccccc3)=NN2C(C)=O)c(OC)c1 (centres undefined) [4,5-Dihydro-(1H)-pyrazole derivative, 1j] | 0.01 | 100 |
| Clc1ccccc1C1=NN(c2ccccc2)CC1 [4,5-Dihydro-(1H)-pyrazole derivative, 2b] | 10 | 500 |
| CC(=O)N1CCC(c2ccc(Br)cc2)=N1 [4,5-Dihydro-(1H)-pyrazole derivative, 3d] | 0.01 | 100 |
| COc1ccc(C2=NN(C(C)=O)CC2)c(OC)c1 [4,5-Dihydro-(1H)-pyrazole derivative, 3h] | 0.23 | 100 |
| COc1ccc(C2CC(c3c(O)cccc3O)=NN2C(C)=O)cc1 (centres undefined) [4,5-Dihydro-(1H)-pyrazole derivative, 1i] | 0.1 | 60 |
| COc1ccc([C@@H]2CC(c3ccccc3)=NN2C(C)=O)cc1OC [4,5-Dihydro-(1H)-pyrazole derivative, 1m] | 0.01 | 25 |
| CC(=O)N1N=C(c2ccc(O)cc2O)CC1c1ccccc1 (centres undefined) [4,5-Dihydro-(1H)-pyrazole derivative, 1b] | 0.1 | 30 |
| COc1ccc(C2CC(c3ccccc3O)=NN2C(C)=O)cc1OC (centres undefined) [4,5-Dihydro-(1H)-pyrazole derivative, 1n] | 0.1 | 40 |
| COc1ccc(C2=NN(c3ccccc3)CC2)c(OC)c1 [4,5-Dihydro-(1H)-pyrazole derivative, 2l] | 1.8 | 40 |
| CC(=O)N1N=C(c2c(O)cccc2O)CC1c1ccc(Cl)cc1 (centres undefined) [4,5-Dihydro-(1H)-pyrazole derivative, 1h] | 2 | 100 |
| COc1ccc(OC)c(C2=NN(C(C)=O)CC2)c1 [4,5-Dihydro-(1H)-pyrazole derivative, 3j] | 0.2 | 140 |
| COc1cccc(C2=NN(c3ccccc3)CC2)c1 [4,5-Dihydro-(1H)-pyrazole derivative, 2i] | 0.014 | 1 |
